These results are taken from patent EP0111455A2, “Unsaturated lactones” (CIBA-GEIGY AG, priority 1982, dated 1984).

For assay [1], the system named is isolierten, elektrisch gereizten, linken Vorhöfen des Meerschweinchens. Briefly: positive inotropic effect on isolated, electrically stimulated left atria (method after J.V. Levy). The class given is cell-based, Meerschweinchen. The conditions noted are these: for IC25 / IC50: negative inotropic effect, same set-up; for IC25: read-out: Konzentration für Reduktion der Kontraktionskraft um 25 %; for IC50: read-out: Konzentration für Reduktion der Kontraktionskraft um 50 %; for Kontraktionskraft (Art der Wirkung): qualitative, exclusively a decrease of contraction force; for Emax: Cavia porcellus, extent of positive inotropic effect in % of the maximal increase of contraction force by Isoproterenol, read-out: Ausmass der Wirkung (% von ISOmax); for EC50: concentration for half of the maximal positive inotropic effect, left atria, guinea pig, read-out: Wirksamkeit EC50. The text has this:
(§1) Die Steigerung der myocardialen Kontraktilität, d.h. die positiv inotrope Wirkung, kann z.B. anhand von Versuchsanordnungen nachgewiesen werden, die sich auf die von J.V. Levy, Isolated Atrial Preparations in Methods in Pharmacology, Bd. 1, S. 77 bis 104 (Ed. A. Schwartz; Appleton-Century-Crofts, New York; 1971),beschriebene Methodik, stützen. So steigern die Verbindungen der Formel I und Salze von solchen Verbindungen mit salzbildenden Eigenschaften in Konzentrationen ab etwa 0,1 umol/L an isolierten, elektrisch gereizten, linken Vorhöfen des Meerschweinchens (in vitro-Versuchsanordnung) die maximale Kontraktionskraft (peak developed tension). Das Ausmass (efficacy) dieser positiv inotropen Wirkung ist dabei unterschiedlich, kann jedoch bis zu 90 % der mit Isoproterenol maximal erreichbaren Wirkung betragen. Ferner steigern sie in Konzentrationen ab etwa 0,3 µ mol/L an isolierten, spontan schlagenden, rechten Vorhöfen des Meerschweinchens die Kontraktionsfrequenz. Das Ausmass (efficacy) dieser positiv chronotropen Wirkung ist dabei unterschiedlich, kann jedoch bis zu 60% der mit Isoproterenol maximal erreichbaren Wirkung betragen.
In der folgenden Tabelle werden die Konzentrationen (in µmol/L) für Verbindungen der Formel I angegeben, die notwendig sind, um die Hälfte der maximalen positiv inotropen Wirkung zu erzielen (EC50). Das Ausmass der Wirkung wird in % der maximalen, mittels Isoproterenol in dieser Versuchsanordnung bewirkten Steigerung der Kontraktionskraft (ISOmax.) angegeben; diejenige von Isoproterenol beträgt +2.1 +0.1 g (x ± SK; N=30).
Im Gegensatz dazu weist z.B. der obgenannte 2-Cyan-6-methyl-4-(3-nitrophenyl)-1,4-dihydro-pyridin-3,5-dicarbonsäure-5-isopropylester-3-methylester in der gleichen Versuchsanordnung eine Reduktion der Kontraktionskraft um 25 % bei einer Konzentration von 1 µmol/L und um 50 % bei einer solchen von 8 µmol/L auf, während Nifedipin bei einer Konzentration von 0.1 µmol/L eine 25 %ige und von 0.4 µmo 1/1 eine 50 Zige Reduktion der myocardialen Kontraktionskraft bewirkt.

Assay [2] has as its system isolierten, spontan schlagenden, rechten Vorhöfen des Meerschweinchens. The assay can be described thus: positive chronotropic effect on isolated, spontaneously beating right atria. The class given is cell-based, Meerschweinchen. The conditions noted are these: qualitative; exclusively a decrease of contraction frequency.
From the text: as §1

Assay [3] relates to narkotisierten Katze. Briefly: arterial blood pressure in the anaesthetised cat, intravenous. In kind it is in vivo. The conditions noted are these: qualitative, i.v., doses from about 0,001 mg/kg. On the procedure:
An der narkotisierten Katze führen die Verbindungen der Formel I und Salze von solchen Verbindungen mit salzbildenden Eigenschaften bei intravenöser Verabreichung in Dosen ab etwa 0,001 mg/kg zu einer Steigerung des arteriellen Blutdrucks.

For assay [4], the system named is männliche Ratten. Briefly: central nervous system stimulation (behaviour) in male rats, i.p. In kind it is in vivo. The conditions noted are these: 50 mg/kg i.p. as solution in Polyäthylenglycol 400; during 1 hour, especially 30 minutes after administration. Here is the method: Die Verbindungen der Formel I sowie Salze von solchen Verbindungen mit salzbildenden Eigenschaften wirken ferner aktivierend, insbesondere stimulierend, auf das Zentralnervensystem. So bewirkt z.B. die i.p.-Verabreichung von 50 mg/kg 4-(2-Difluormethoxyphenyl)-2-methyl-5-oxo-1,4,5,7-tetrahydro-fuo[3,4-b]pyridin-3-carbonsäureäthylester als Lösung in Polyäthylenglycol 400 an männliche Ratten während 1 Stunde, insbesondere während 30 Minuten nach Verabreichung Schnuppern, Kau- und Putzaktivität, sporadische. Schüttelbewegungen von Kopf und Körper sowie Vorderpfoten-Klonus. Aufgrund dieser Eigenschaften erscheinen die Verbindungen der Formel I sowie Salze von solchen Verbindungen mit salzbildenden Eigenschaften für die Behandlung retardierter Depressionen verschiedenen Schweregrades, von psychischen, von fehlendem Antrieb und Initiative begleiteten Störungen sowie von hypokinetischen, geriatrischen Patienten geeignet.

For assay [5], the system named is narkotisierten Hund. Briefly: haemodynamics and blood glucose in the anaesthetised dog, intravenous. In kind it is in vivo. The conditions noted are these: qualitative. On the procedure:
Im narkotisierten Hund (in vivo-Versuchsanordnung) bewirken die Verbindungen der Formel I und Salze von solchen Verbindungen mit salzbildenen Eigenschaften bei intravenöser Verabreichung in Dosen ab etwa 1 mg/kg ebenfalls eine Steigerung der myokardialen Kontraktilität (Zunahme der maximalen Druckanstiegsgeschwindigkeit dP/dt in der max Aorta) um etwa 40 bis etwa 60 %, sowie eine Steigerung des arteriellen Blutdrucks um etwa 10 bis etwa 30 %, ferner eine Abnahme der GlucoseKonzentration im Blut um etwa 10 bis etwa 30 %.

In the case of `COC(=O)C1=C(C#N)NC(C)=C(C(=O)OC(C)C)C1c1cccc([N+](=O)[O-])c1` (centres unmarked) [2-Cyan-6-methyl-4-(3-nitrophenyl)-1,4-dihydro-pyridin-3,5-dicarbonsäure-5-isopropylester-3-methylester, reference compound], in assay [1], the IC25 came to 1000 nM, the IC50 amounted to 8000 nM and the “Kontraktionskraft (Art der Wirkung)” value is listed as “negativ inotrope Wirkung”. The “Kontraktionsfrequenz (Art der Wirkung)” value in assay [2] is recorded as “negativ chronotrope Wirkung”. In assay [3], the “arterieller Blutdruck (Art der Wirkung)” value is “Senkung des arteriellen Blutdrucks”.
Usually EC50 stands for the midpoint of the concentration-response curve. Turning to `CCOC(=O)C1=C(C)NC2=C(C(=O)OC2)C1c1ccccc1OCCSC` (centres unmarked) [2-Methyl-4-[2-(2-methylthioäthoxy)-phenyl]-5-oxo-_ 1,4,5,7-tetrahydro-fnro[3,4-b]pyridin-3-carbonsäure-äthylester], in assay [1], the Emax turned out to be 75% and the EC50 worked out at 380 nM.
For `CCOC(=O)C1=C(C)NC2=C(C(=O)OC2)C1c1ccccc1OC(F)(F)C(F)Cl` (centres unmarked) [4-[2-(2-Chlor-1,1,2-trifluor-äthoxy)-phenyl]-2-methyl-5-oxo-1,4,5,7-tetrahydro-furo-[3,4-b]pyridin-3-carbonsäureäthylester], in assay [1], the Emax is 75% and the EC50 was 1000 nM.
In the case of `CC1=C(C#N)C(c2ccccc2OC(F)F)C2=C(COC2=O)N1` (centres unmarked) [-CN; 2-Difluormethoxy-phenyl, 4-(2-Difluormethoxy-phenyl)-2-methyl-5-oxo-1,4,5,7-tetrahydro-furo[3,4-b]pyridin-3-carbonitril], in assay [1], the Emax was determined as 68% and the EC50 turned out to be 63000 nM.
Turning to `COCCOC(=O)C1=C(C)NC2=C(C(=O)OC2)C1c1ccccc1OC(F)F` (centres unmarked) [-COOC2H4OCH3; 2-Difluormethoxy-phenyl, 4-(2-Difluormethoxyphenyl)-2-methyl-5-oxo-1,4,5,7-tetrahydro-furo[3,4-b]pyridin-3-carbonsäure-(2-methoxyäthyl)-ester], in assay [1], the Emax amounted to 90% and the EC50 came out at 5300 nM.
With `CCOC(=O)C1=C(C)NC2=C(C(=O)OC2)C1c1cccc(OC(F)F)c1OC(F)F` (centres unmarked) [-COOC2H5; 2,3-Di-difluor-methoxyphenyl, 4-[2,3 Di-(difluormethoxy)-phenyl]-2-methyl-5-oxo-1,4,5,7-tetrahydro-furo[3,4-b]pyridin-3-carbonsäure-äthylester], the Emax in assay [1] worked out at 14%.
As for `CCOC(=O)C1=C(C)NC2=C(C(=O)OC2)C1c1ccccc1OCCOC` (centres unmarked) [-COOC2H5; 2-(2-Methoxyäthoxy)-phenyl, 2 Methyl-4-[2-(2-methoxyäthoxy)-phenyl]-5-oxo-1,4,5,7-tetrahydro-furo[3,4-b]pyridin-3-carbonsäure-äthylester], in assay [1], the Emax came out at 80% and the EC50 was found to be 3800 nM.
On to `CCOC(=O)C1=C(C)NC2=C(C(=O)OC2)C1c1ccccc1OC(F)F` (centres unmarked) [-COOC2H5; 2-Difluormethoxy-phenyl, 4-(2-Difluormethoxy-phenyl)-2-methyl-5-oxo-1,4-5,7-tetrahydro-furo[3,4-b]pyridin-3-carbonsäureäthylester], for which, in assay [1], the Emax worked out at 65% and the EC50 was determined as 700 nM. The “Wirkung auf das Zentralnervensystem (Verhalten)” value in assay [4] is “Schnuppern, Kau- und Putzaktivität, sporadische. Schüttelbewegungen von Kopf und Körper sowie Vorderpfoten-Klonus”.
Turning to `CCOC(=O)C1=C(C)NC2=C(C(=O)OC2)C1c1ccccc1SC(F)F` (centres unmarked) [-COOC2H5; 2-Difluormethyl-mercaptophenyl, 4-(2-Difluormethylmercaptophenyl)-2-methyl-5-oxo-1,4,5,7-tetrahydro-furo[3,4-b]pyridin-3-carbonsäure-äthylester], in assay [1], the Emax is 80% and the EC50 came out at 1000 nM.
In the case of `CCOC(=O)C1=C(C)NC2=C(C(=O)OC2)C1c1cccc(OC(F)F)c1` (centres unmarked) [-COOC2H5; 3-Difluormethoxy-phenyl, 4-(3-Difluormethoxyphenyl)-2-methyl-5-oxo-1,4,5,7-tetrahydro-furo [3,4-b]pyridin-3-carbonsäure-äthylester], in assay [1], the Emax was found to be 65% and the EC50 was 4800 nM.
As for `CCOC(=O)C1=C(C)NC2=C(C(=O)OC2)C1c1ccc(OC(F)F)cc1` (centres unmarked) [-COOC2H5; 4-Difluormethoxy-phenyl, 4-(4-Difluormethoxy-phenyl)-2-methyl-5-oxo-1,4,5,7-tetrahydro-furo[3,4-b]pyridin-3-carbonsäureäthylester], in assay [1], the Emax was determined as 10%.
For `COC(=O)C1=C(C)NC2=C(C(=O)OC2)C1c1ccccc1OC(F)F` (centres unmarked) [-COOCH3; 2-Difluormethoxy-phenyl, 4-(2-Difluormethoxyphenyl)-2-methyl-5-oxo-l,4,5,7-tetrahydro-furo[3,4-b]pyridin-3-carbonsäure-methylester], in assay [1], the Emax was determined as 70% and the EC50 was found to be 3700 nM.
Turning to `CC1=C(C(=O)OC(C)C)C(c2ccccc2OC(F)F)C2=C(COC2=O)N1` (centres unmarked) [-COOCH(CH3)2; 2-Difluormethoxy-phenyl, 4-(2-Difluormethoxyphenyl)-2-methyl-5-oxo-1,4,5,7-tetra-hydro-furo[3,4-b]pyridin-3-carbonsäure-isopropylester], in assay [1], the Emax was 70% and the EC50 is 1200 nM.
Turning to `CC(C)NCC(O)c1ccc(O)c(O)c1` (centres unmarked) [Isoproterenol, reference compound], the “maximale Steigerung der Kontraktionskraft (ISOmax.)” value in assay [1] (x ± SK, N=30) is 2.1 ± 0.1 g.
As for `COC(=O)C1=C(C)NC(C)=C(C(=O)OC)C1c1ccccc1[N+](=O)[O-]` [Nifedipin, 2,6-Dimethyl-4-(2-nitrophenyl)-1,4-dihydro-pyridin-3,5-dicarbonsäure-dimethylester, reference compound], in assay [1], the IC25 stood at 100 nM, the IC50 was determined as 400 nM and the “Kontraktionskraft (Art der Wirkung)” value was “negativ inotrope Wirkung”. Further, the “Kontraktionsfrequenz (Art der Wirkung)” value in assay [2] is listed as “negativ chronotrope Wirkung”. Moreover, the “Blutdruck (Art der Wirkung)” value in assay [5] is “Senkung des Blutdrucks”. Also, the “arterieller Blutdruck (Art der Wirkung)” value in assay [3] was “Senkung des arteriellen Blutdrucks”.
